Reference: patent publication US6620828B2, “Thiazole compounds and pharmaceutical compositions for inhibiting protein kinases and methods for their use” (Agouron Pharmaceuticals, Inc., priority 1999, dated 2003)
Where two headings read alike, the source gives them in different places.

System: human umbilical vein endothelial cells (HUVEC)
Assay: HUVEC proliferation assay
Assay type: cell-based
Conditions: Homo sapiens, HUVEC, crude combinatorial urea library; for inhibition at 0.01 µM: 10 nM, read-out: Inhibition of HUVEC Proliferation % inhibition @ 10 nM; for inhibition at 0.05 µM: 50 nM
Protocol: HUVEC Proliferation Assay
This assay determines the ability of a test compound to inhibit the growth factor-stimulated proliferation of human umbilical vein endothelial cells (“HUVEC”). HUVEC cells (passage 3-4, Clonetics, Corp.) were thawed into EGM2 culture medium (Clonetics Corp) in T75 flasks. Fresh EGM2 medium was added to the flasks 24 hours later. Four or five days later, cells were exposed to another culture medium (F12K medium supplemented with 10% fetal bovine serum (FBS), 60 μg/ml endothelial cell growth supplement (ECGS), and 0.1 mg/ml heparin). Exponentially-growing HUVEC cells were used in experiments thereafter. Ten to twelve thousand HUVEC cells were plated in 96-well dishes in 100 μl of rich, culture medium (described above). The cells were allowed to attach for 24 hours in this medium. The medium was then removed by aspiration and 105 μl of starvation media (F12K+1% FBS) was added to each well. After 24 hours, 15 μl of test agent dissolved in 1% DMSO in starvation medium or this vehicle alone was added into each treatment well; the final DMSO concentration was 0.1%. One hour later, 30 μl of VEGF (30 ng/ml) in starvation media was added to all wells except those containing untreated controls; the final VEGF concentration was 6 ng/ml. Cellular proliferation was quantified 72 hours later by MTT dye reduction, at which time cells were exposed for 4 hours MTT (Promega Corp.). Dye reduction was stopped by addition of a stop solution (Promega Corp.) and absorbance at 595 λ was determined on a 96-well spectrophotometer plate reader.
IC50 values were calculated by curve-fitting the response of A^595 to various concentrations of the test agent; typically, seven concentrations separated by 0.5 log were employed, with triplicate wells at each concentration. For screening compound library plates, one or two concentrations (one well per concentration) were employed, and the % inhibition was calculated by the following formula:
% inhibition=(control−test) divided by (control−starvation) […]
control=A^595 when VEGF is present without test agent test=A^595 when VEGF is present with test agent starvation=A^595 when VEGF and test agent are both absent.

[1] = read-out: Inhibition of HUVEC Proliferation % inhibition @ 50 nM
[2] = Inhibition of HUVEC Proliferation, read-out: % inhibition @ 50 nM

SMILES	inhibition at 0.01 µM [%]	inhibition at 0.05 µM [1] [%]	inhibition at 0.05 µM [2] [%]
COc1cccc(C(=O)Nc2cccc(-c3csc(-c4sc(NC(=O)NCCNc5ccccc5)nc4N)n3)c2)c1	28	62	
COc1cccc(C(=O)Nc2cccc(-c3csc(-c4sc(NC(=O)NCC(C)O)nc4N)n3)c2)c1 (stereo not shown)	7	126	
COc1cccc(C(=O)Nc2cccc(-c3csc(-c4sc(NC(=O)NCCCN5CCOCC5)nc4N)n3)c2)c1	19	83	
COc1cccc(C(=O)Nc2cccc(-c3csc(-c4sc(NC(=O)NCCC(C)C)nc4N)n3)c2)c1	25	18	
COc1cccc(C(=O)Nc2cccc(-c3csc(-c4sc(NC(=O)NCC5CCCO5)nc4N)n3)c2)c1 (stereo not shown)	46	87	
COc1cccc(C(=O)Nc2cccc(-c3csc(-c4sc(NC(=O)NCCCN5CCCC5=O)nc4N)n3)c2)c1	28	123	
COc1cccc(C(=O)Nc2cccc(-c3csc(-c4sc(NC(=O)NCCC5CCCN5C)nc4N)n3)c2)c1 (stereo not shown)	39	0	
COc1cccc(C(=O)Nc2cccc(-c3csc(-c4sc(NC(=O)NCCN5CCCCC5)nc4N)n3)c2)c1	22	25	
COc1cccc(C(=O)Nc2cccc(-c3csc(-c4sc(NC(=O)NCc5ccccc5)nc4N)n3)c2)c1	-11	114	
COc1cccc(C(=O)Nc2cccc(-c3csc(-c4sc(NC(=O)NCCCN5CCCCC5C)nc4N)n3)c2)c1 (stereo not shown)	-18	55	
COc1cccc(C(=O)Nc2cccc(-c3csc(-c4sc(NC(=O)NC5CCN(Cc6ccccc6)CC5)nc4N)n3)c2)c1	-22	23	
COc1cccc(C(=O)Nc2cccc(-c3csc(-c4sc(NC(=O)NCC(C)(C)CN(C)C)nc4N)n3)c2)c1	-25	36	
COc1cccc(C(=O)Nc2cccc(-c3csc(-c4sc(NC(=O)N[C@H]5CC[C@H](O)CC5)nc4N)n3)c2)c1	-6	21	
COc1cccc(C(=O)Nc2cccc(-c3csc(-c4sc(NC(=O)NCCC(=O)O)nc4N)n3)c2)c1	-1	8	
COCCNC(=O)Nc1nc(N)c(-c2nc(-c3cccc(NC(=O)c4cccc(OC)c4)c3)cs2)s1	35	32	
COc1cccc(C(=O)Nc2cccc(-c3csc(-c4sc(NC(=O)NCC(F)(F)F)nc4N)n3)c2)c1	20	15	
COc1cccc(C(=O)Nc2cccc(-c3csc(-c4sc(NC(=O)NCCCn5ccnc5)nc4N)n3)c2)c1	9	39	
COc1cccc(C(=O)Nc2cccc(-c3csc(-c4sc(NC(=O)NCCc5ccc(S(N)(=O)=O)cc5)nc4N)n3)c2)c1	34	49	
CCCCN(CC)CCNC(=O)Nc1nc(N)c(-c2nc(-c3cccc(NC(=O)c4cccc(OC)c4)c3)cs2)s1	1	10	
COc1cccc(C(=O)Nc2cccc(-c3csc(-c4sc(NC(=O)NCc5ccc(N(C)C)cc5)nc4N)n3)c2)c1	19	67	
COc1cccc(C(=O)Nc2cccc(-c3csc(-c4sc(NC(=O)NCP(=O)(O)O)nc4N)n3)c2)c1	-8	38	
COc1cccc(C(=O)Nc2cccc(-c3csc(-c4sc(NC(=O)NC(CO)CO)nc4N)n3)c2)c1	-17	52	
COc1cccc(C(=O)Nc2cccc(-c3csc(-c4sc(NC(=O)NCc5ccc(N)cc5)nc4N)n3)c2)c1	4	35	
COc1cccc(C(=O)Nc2cccc(-c3csc(-c4sc(NC(=O)N[C@@H](CO)C(N)=O)nc4N)n3)c2)c1	5	24	
COc1cccc(C(=O)Nc2cccc(-c3csc(-c4sc(NC(=O)NCCNC(C)=O)nc4N)n3)c2)c1	20	77	
COc1cccc(C(=O)Nc2cccc(-c3csc(-c4sc(NC(=O)N[C@H](CO)Cc5c[nH]cn5)nc4N)n3)c2)c1	16	19	
CCC(CO)NC(=O)Nc1nc(N)c(-c2nc(-c3cccc(NC(=O)c4cccc(OC)c4)c3)cs2)s1 (stereo not shown)	13	62	
COc1cccc(C(=O)Nc2cccc(-c3csc(-c4sc(NC(=O)NCCCC(=O)O)nc4N)n3)c2)c1	23	24	

SMILES	inhibition at 0.01 µM [%]	inhibition at 0.05 µM [1] [%]	inhibition at 0.05 µM [2] [%]
COc1cccc(C(=O)Nc2cccc(-c3csc(-c4sc(NC(=O)NCCOCCO)nc4N)n3)c2)c1	13	92	
COc1cccc(C(=O)Nc2cccc(-c3csc(-c4sc(NC(=O)NCCN5CCOCC5)nc4N)n3)c2)c1	1	121	
COc1cccc(C(=O)Nc2cccc(-c3csc(-c4sc(NC(=O)NCCN5CCNCC5)nc4N)n3)c2)c1	4	39	
COc1cccc(C(=O)Nc2cccc(-c3csc(-c4sc(NC(=O)NCCc5ccccn5)nc4N)n3)c2)c1	-2	128	
COc1cccc(C(=O)Nc2cccc(-c3csc(-c4sc(NC(=O)NCCN5CCCC5)nc4N)n3)c2)c1	7	17	
COCC(C)NC(=O)Nc1nc(N)c(-c2nc(-c3cccc(NC(=O)c4cccc(OC)c4)c3)cs2)s1 (stereo not shown)	8	42	
COc1cccc(C(=O)Nc2cccc(-c3csc(-c4sc(NC(=O)NCc5ccccn5)nc4N)n3)c2)c1	-5	103	
COc1cccc(C(=O)Nc2cccc(-c3csc(-c4sc(NC(=O)NCc5cccnc5)nc4N)n3)c2)c1	3	105	
COc1cccc(C(=O)Nc2cccc(-c3csc(-c4sc(NC(=O)NCc5ccncc5)nc4N)n3)c2)c1	-2	116	
COc1cccc(C(=O)Nc2cccc(-c3csc(-c4sc(NC(=O)NCC(O)CO)nc4N)n3)c2)c1 (stereo not shown)	-3	42	
COc1cccc(C(=O)Nc2cccc(-c3csc(-c4sc(NC(=O)NC(C)CO)nc4N)n3)c2)c1 (stereo not shown)	-3	42	
COc1cccc(C(=O)Nc2cccc(-c3csc(-c4sc(NC(=O)NCCCN(C)C)nc4N)n3)c2)c1	-8	15	
COc1cccc(C(=O)Nc2cccc(-c3csc(-c4sc(NC(=O)NCCN(C)C)nc4N)n3)c2)c1	-11	46	
COc1cccc(C(=O)Nc2cccc(-c3csc(-c4sc(NC(=O)NCC(C)(C)N)nc4N)n3)c2)c1	14	3	
CCN(CC)CCNC(=O)Nc1nc(N)c(-c2nc(-c3cc(NC(=O)c4cccc(OC)c4)c(F)cc3F)cs2)s1			40
CCN(CC)CCCNC(=O)Nc1nc(N)c(-c2nc(-c3cc(NC(=O)c4cccc(OC)c4)c(F)cc3F)cs2)s1			89
COc1cccc(C(=O)Nc2cc(-c3csc(-c4sc(NC(=O)NCC(N)=O)nc4N)n3)c(F)cc2F)c1			48
COc1cccc(C(=O)Nc2cc(-c3csc(-c4sc(NC(=O)NCC(C)C)nc4N)n3)c(F)cc2F)c1			38
COc1cccc(C(=O)Nc2cc(-c3csc(-c4sc(NC(=O)NCCc5cccnc5)nc4N)n3)c(F)cc2F)c1			100
COc1cccc(C(=O)Nc2cc(-c3csc(-c4sc(NC(=O)NCCO)nc4N)n3)c(F)cc2F)c1			110
COc1cccc(C(=O)Nc2cc(-c3csc(-c4sc(NC(=O)N[C@@H](CC(N)=O)C(N)=O)nc4N)n3)c(F)cc2F)c1			32
CNC(=O)CNC(=O)Nc1nc(N)c(-c2nc(-c3cc(NC(=O)c4cccc(OC)c4)c(F)cc3F)cs2)s1			73
COc1cccc(C(=O)Nc2cc(-c3csc(-c4sc(NC(=O)NCCc5cncn5C)nc4N)n3)c(F)cc2F)c1			58
CCN1CCCC1CNC(=O)Nc1nc(N)c(-c2nc(-c3cc(NC(=O)c4cccc(OC)c4)c(F)cc3F)cs2)s1 (stereo not shown)			85
COc1cccc(C(=O)Nc2cc(-c3csc(-c4sc(NC(=O)NC(C)CN(C)C)nc4N)n3)c(F)cc2F)c1 (stereo not shown)			64
COc1cccc(C(=O)Nc2cc(-c3csc(-c4sc(NC(=O)NCCCN5CCCC5)nc4N)n3)c(F)cc2F)c1			92
COc1cccc(C(=O)Nc2cc(-c3csc(-c4sc(NC(=O)NCCN(C(C)C)C(C)C)nc4N)n3)c(F)cc2F)c1			82
